Measured values from patent US4253998A, “Peptides related to somatostatin” (American Home Products Corporation, priority 1979, dated 1981).
Structures can show the parent of a compound that is named as a salt. Bridge positions count the residues as written; N and C are the ends. Square brackets hold non-standard residues; d marks the D form. Peptide text beside a SMILES is read from it.

Key:
Assay type in all cases: in vivo, rat
growth hormone (GH) [1] = assay: Inhibition of growth hormone secretion in arginine-treated, pentobarbital-anesthetized rats (radioimmunoassay)
Method: (§1) Male albino rats are divided into two groups (e.g. nine rats per group). Each animal is administered sodium pentobarbital (Nembutal), I. P., at a dose of 50 mg/kg. Fifteen minutes later, one group received a S. C. injection of the test compound in saline (typically 5 to 200 μg/kg.), and the other group (control) receives saline alone. Ten minutes later, each animal is given a 0.5 ml. injection of arginine (300 mg/ml., pH 7.2) into the heart. Five minutes after receipt of the arginine, the animals are decapitated and blood is collected into Trasylol-EDTA. An appropriate aliquot of each sample is assayed for GH, glucagon, and insulin by radioimmunossay. GH is determined by the method of Sinha et al., Endocrinol., 91, 784 (1972); glucagon is determined by the method of Caloona and Unger, "Methods of Hormone Radioimmunoassay," Jaffe et al., Ed., Academic Press, New York, 1974, pages 317-330; and insulin is determined by the method of Hales and Randle, Biochem. J., 88, 137 (1963). The blood concentrations of growth hormone, glucagon, and insulin for the animals given the test compound are compared by standard statistical methods to the blood concentrations for the control group.

insulin = assay: Inhibition of insulin secretion in arginine-treated, pentobarbital-anesthetized rats (radioimmunoassay)
Method: as §1

glucagon = assay: Inhibition of glucagon secretion in arginine-treated, pentobarbital-anesthetized rats (radioimmunoassay)
Method: as §1

growth hormone (GH) [2] = assay: Prolonged inhibition of growth hormone in rats (plasma GH 2 to 6 hours after S.C. injection); conditions: for Plasma GH: 1000 μg/kg S.C.
Method: Albino male rats are arranged in two groups (nine rats per group). One group received a subcutaneous (S. C.) injection of the test compound (typically 1 mg/kg.) in saline, and the other group received a S. C. injection of saline alone (control). […] P. injection of sodium pentobarbital, 50 mg/kg. At the end of the experiment, blood samples are taken from each animal by cardiac puncture, and each sample is mixed with Trasylol-EDTA. An aliquot of each sample is assayed for GH by radioimmunoassay. The blood growth hormone concentrations for the animals receiving the test compound are compared by standard statistical methods to the growth hormone concentrations for the control animals. Compounds considered long-acting product a significant decrease in blood growth hormone concentration at a dose of 1 mg/kg. at least two hours after injection.

C[C@@H](O)[C@@H]1NC(=O)[C@H](CCCCN)NC(=O)[C@@H](Cc2c[nH]c3ccccc23)NC(=O)[C@H](Cc2ccccc2)NC(=O)[C@H](Cc2ccccc2)NC(=O)[C@H](Cc2c[nH]cn2)NC(=O)[C@H](Cc2c[nH]cn2)NC(=O)[C@@H](N)CSSC[C@@H](C(=O)O)NC(=O)[C@@H](CO)NC(=O)[C@H]([C@@H](C)O)NC(=O)[C@H](Cc2ccccc2)NC1=O [Example 6, L-Cysteinyl-L-Histidyl-L-Histidyl-L-Phenylalanyl-L-Phenylalanyl-D-Tryptophyl-L-Lysyl-L-Threonyl-L-Phenylalanyl-L-Threonyl-D-Seryl-L-Cysteine Cyclic (1→12) Disulfide Triacetate Salt] (H-CHHFF[dW]KTFT[dS]C-OH; disulfide 1-12)
GH (growth hormone (GH) [1]; Exp. F, 100 μg/kg S.C., control 363 ± 74, p < 0.01): 83 ± 16 ng/mL
Insulin (insulin; Exp. F, 100 μg/kg S.C., control 75 ± 8, not significant): 60 ± 10 μU/ml
Glucagon (glucagon; Exp. F, 100 μg/kg S.C., control 162 ± 29, p < 0.01): 55 ± 12 pg/mL

C[C@@H](O)[C@@H]1NC(=O)[C@H](CCCCN)NC(=O)[C@@H](Cc2c[nH]c3ccccc23)NC(=O)[C@H](Cc2ccccc2)NC(=O)[C@H](Cc2ccccc2)NC(=O)[C@H](CCC(=O)O)NC(=O)[C@H](CCCNC(=N)N)NC(=O)[C@@H](N)CSSC[C@@H](C(=O)O)NC(=O)[C@@H](Cc2ccc(O)cc2)NC(=O)[C@H]([C@@H](C)O)NC(=O)[C@H](Cc2ccccc2)NC1=O [Example 4, L-Cysteinyl-L-Arginyl-L-α-Glutamyl-L-Phenylalanyl-L-Phenylalanyl-D-Tryptophyl-L-Lysyl-L-Threonyl-L-Phenylalanyl-L-Threonyl-D-Tyrosyl-L-Cysteine Cyclic (1→12) Disulfide Triacetate Salt] (H-CREFF[dW]KTFT[dY]C-OH; disulfide 1-12)
GH (growth hormone (GH) [1]; Exp. E, 200 μg/kg S.C., control 354 ± 57, p < 0.01): 81 ± 6 ng/mL
Insulin (insulin; Exp. E, 200 μg/kg S.C., control 336 ± 31, p < 0.01): 128 ± 33 μU/ml
Glucagon (glucagon; Exp. E, 200 μg/kg S.C., control 62 ± 10, not significant): 41 ± 14 pg/mL

C[C@@H](O)[C@@H]1NC(=O)[C@H](CCCCN)NC(=O)[C@@H](Cc2c[nH]c3ccccc23)NC(=O)[C@H](Cc2ccccc2)NC(=O)[C@H](Cc2ccccc2)NC(=O)[C@H](Cc2c[nH]cn2)NC(=O)[C@H](CCCNC(=N)N)NC(=O)[C@@H](N)CSSC[C@@H](C(=O)O)NC(=O)[C@@H](Cc2ccc(O)cc2)NC(=O)[C@H]([C@@H](C)O)NC(=O)[C@H](Cc2ccccc2)NC1=O [Example 2, L-Cysteinyl-L-Arginyl-L-Histidyl-L-Phenylalanyl-L-Phenylalanyl-D-Tryptophyl-L-Lysyl-L-Threonyl-L-Phenylalanyl-L-Threonyl-D-Tyrosyl-L-Cysteine Cyclic (1→12) Disulfide] (H-CRHFF[dW]KTFT[dY]C-OH; disulfide 1-12)
GH (growth hormone (GH) [1]; Exp. A, 100 μg/kg S.C., blood 15 min after dose, 5 min after arginine, control 508 ± 13, p < 0.05): 181 ± 47 ng/mL
GH (growth hormone (GH) [1]; Exp. B, 400 μg/kg S.C., control 234 ± 36, p < 0.01): 67 ± 13 ng/mL
Insulin (insulin; Exp. A, 100 μg/kg S.C., control 298 ± 33, p < 0.05): 154 ± 39 μU/ml
Insulin (insulin; Exp. B, 400 μg/kg S.C., control 187 ± 21, p < 0.01): 70 ± 23 μU/ml
Glucagon (glucagon; Exp. A, 100 μg/kg S.C., control 61 ± 8, p < 0.01): 22 ± 7 pg/mL
Glucagon (glucagon; Exp. B, 400 μg/kg S.C., control 41 ± 5, p < 0.01): 9 ± 1 pg/mL
Plasma GH (growth hormone (GH) [2]; Exp. C, 2 hours, control 213 ± 14, p < 0.001): 89 ± 5 ng/mL
Plasma GH (growth hormone (GH) [2]; Exp. C, 4 hours, control 182 ± 12, p < 0.001): 101 ± 13 ng/mL
Plasma GH (growth hormone (GH) [2]; Exp. D, 5 hours, control 337 ± 36, p < 0.05): 230 ± 31 ng/mL
Plasma GH (growth hormone (GH) [2]; Exp. D, 6 hours, control 234 ± 24, not significant): 172 ± 34 ng/mL
Prolonged inhibition of growth hormone / period of action (in words) (growth hormone (GH) [2]; rat, in vivo): shows prolonged inhibition of growth hormone
